From US10450341B2, “Cyclic di-nucleotides as modulators of STING” (GlaxoSmithKline Intellectual Property Development Limited, priority 2014, dated 2019) come the findings set out here.

The experiment has as its target STING (Homo sapiens, UniProt Q86WV6). The experiment is described as follows: STING binding assay similar to that described by Li et al.

In general, pIC50 refers to −log10 of the IC50, conventionally taken in molar units. A lower pIC50 goes with a high IC50.

pIC50: −log10 of the molar value.

STING, sequence (Q86WV6 whole entry H232R, species assumed): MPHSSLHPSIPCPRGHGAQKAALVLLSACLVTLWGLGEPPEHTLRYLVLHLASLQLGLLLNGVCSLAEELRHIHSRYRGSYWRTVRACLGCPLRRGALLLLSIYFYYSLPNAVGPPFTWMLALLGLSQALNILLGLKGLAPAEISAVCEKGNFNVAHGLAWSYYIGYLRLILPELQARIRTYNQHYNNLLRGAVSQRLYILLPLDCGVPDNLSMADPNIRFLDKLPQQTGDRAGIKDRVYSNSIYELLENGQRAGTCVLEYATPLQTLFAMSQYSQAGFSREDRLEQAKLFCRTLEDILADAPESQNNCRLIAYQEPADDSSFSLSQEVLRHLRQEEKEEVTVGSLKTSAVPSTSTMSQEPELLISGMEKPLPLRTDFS

As for `Nc1nc2c(ncn2[C@@H]2C[C@@H]3COP(=O)(O)O[C@H]4[C@@H](F)[C@H](n5cnc6c(N)ncnc65)O[C@@H]4COP(=O)(O)O[C@@H]2[C@@H]3O)c(=O)[nH]1` [Example 4, (1S,6R,8R,9R,10R,15R,17R,18R)-17-(2-Amino-6-oxo-6,9-dihydro-1H-purin-9-yl)-8-(6-amino-9H-purin-9-yl)-9-fluoro-3,12,18-trihydroxy-2,4,7,11,13-pentaoxa-3λ^5,12λ^5-diphosphatricyclo[13.2.1.0^6,10]octadecane-3,12-dione], the pIC50 was greater than 4.00.
